Structures are written as SMILES. A value given as a limit tells only on which side of the number the result lay.

For the assay, the target named is BCL-2 recombinant protein (Homo sapiens, UniProt P10415). Put plainly: Cell free Bcl-2:Bak affinity assay (Bcl-2 Bak), HTRF competition of FAM-Bak peptide. The format is binding. The conditions noted are these: 10-concentration IC50 mode, 4 nM BCL-2 recombinant protein, 100 nM FAM-Bak, read-out: potency (IC50). In short, it runs like this: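 Compounds in 10-point 3-fold dilution preincubated 10 min at RT with 4 nM GST-BCL-2 (20 mM K phosphate pH 7.5, 50 mM NaCl, 1 mM EDTA, 0.005% Triton X-100), then 100 nM FAM-Bak 10 min, anti-GST-Tb added, 60 min RT dark. HTRF read; % inhibition vs DMSO and positive control, IC50 from curve fit.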
Chain of BCL-2 recombinant protein (P10415 whole entry): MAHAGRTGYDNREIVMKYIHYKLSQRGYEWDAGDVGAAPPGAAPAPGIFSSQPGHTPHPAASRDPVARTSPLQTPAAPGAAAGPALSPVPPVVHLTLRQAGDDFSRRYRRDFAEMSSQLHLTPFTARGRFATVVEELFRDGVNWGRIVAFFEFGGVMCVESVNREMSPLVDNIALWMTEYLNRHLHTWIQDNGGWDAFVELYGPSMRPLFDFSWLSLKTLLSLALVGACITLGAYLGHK
(In general: Time-resolved FRET reads energy transfer from a long-lived donor to a nearby acceptor.)

Take `CC1(C)CCC(CN2CCN(c3ccc(S(=O)(=O)NC(=O)c4ccc(COc5ccc(Cl)cc5)c([N+](=O)[O-])c4)c(Oc4cnc5[nH]ccc5c4)c3)CC2)=C(c2ccc(Cl)cc2)C1` [Example 82]: the IC50 (usually the concentration that gives 50% inhibition) was less than 10 nM.

(Values after patent US11622970B2, “BCL-2 inhibitors and their use as pharmaceuticals” (PRELUDE THERAPEUTICS INCORPORATED, priority 2020, dated 2023).)
